These results are taken from patent publication US12071423B2, “Processes and intermediate for the large-scale preparation of 2,4,6-trifluoro-N-[6-(1-methyl-piperidine-4-carbonyl)-pyridin-2-yl]-benzamide hemisuccinate, and preparation of 2,4,6-trifluoro-N-[6-(1-methyl-piperidine-4-carbonyl)-pyridin-2-yl]-benzamide acetate” (Eli Lilly and Company, priority 2019, dated 2024).

Structures can show the parent of a compound that is named as a salt. Where two headings read alike, the source gives them in different places.

What all share (assay type): physicochemical
A short description of data set [1]: Solubility in 10 mmol acetate, citrate or phosphate buffer (excess solid equilibrated at RT overnight, HPLC). The protocol:
Lasmiditan acetate was discovered to enable a desired dose target of about 50 mg in the minimal volume of less than or equal to about 1 mL, while at the same time achieving a desired target pH being close to neutral, and in addition being relatively isotonic and physically and chemically stable. […] For solubility determinations 10 mmol buffer is made with a respective acid and salt, and pH is adjusted by changing the acid/salt ratio. Excess solid is equilibrated at RT overnight, and solution concentration is analyzed by HPLC and solid was characterized by XRPD. In contrast, for lasmiditan acetate it was discovered that solubility of >50 mg/mL can be achieved, at close to neutral pH, without adjusting the pH.

A short description of data set [2]: Stability of lasmiditan acetate 50 mg/mL solution. The note with it: dissolution at 50 mg/mL. The protocol:
(§1) Lasmiditan acetate enables the desired solubility to provide high concentration formulations having a less than or equal to about 1 mL dose volume, for the desired unit doses, which is critical for clinical applications such as use in available autoinjector devices. In addition, dissolution of lasmiditan acetate at 50 mg/mL results in close to neutral pH (pH approximately 6.8), is isotonic, and stable for at least 2 months.

Data set [3] is described as follows: Dissolution of lasmiditan acetate at 50 mg/mL: pH and tonicity of the solution. The note with it: dissolution at 50 mg/mL. The method, then:
as §1

The nature of data set [4]: Form and chemical stability studies of the intermediate. An excerpt:
[drawing 6] which can be named as (6-amino-2-pyridyl)-(1-methyl-4-piperidyl)methanone dihydrate dihydrochloride. Preferably this compound is crystalline. (6-amino-2-pyridyl)-(1-methyl-4-piperidyl)methanone dihydrate dihydrochloride is particularly useful in the preparation of 2,4,6-trifluoro-N-[6-(1-methylpiperidine-4-carbonyl)-2-pyridyl]benzamide hemisuccinate, and processes which employ (6-amino-2-pyridyl)-(1-methyl-4-piperidyl)methanone dihydrate dihydrochloride may provide advantageous process characteristics, including but not limited to the purity of intermediate and/or final materials. (6-amino-2-pyridyl)-(1-methyl-4-piperidyl)methanone dihydrate dihydrochloride is believed to be a new stable hydrated form of 6-amino-2-pyridyl)-(1-methyl-4-piperidyl)methanone. The process to isolate (6-amino-2-pyridyl)-(1-methyl-4-piperidyl)methanone dihydrate dihydrochloride described herein provides improved impurity rejection and an improved controlled crystallization process. […] Use of this intermediate provides advantageously high purity product at expected yield.

On to `CN1CCC(C(=O)c2cccc(NC(=O)c3c(F)cc(F)cc3F)n2)CC1` [lasmiditan hemisuccinate, 2,4,6-trifluoro-N-[6-(1-methylpiperidine-4-carbonyl)-2-pyridyl]benzamide hemisuccinate, reference compound], for which the “achieving >50 mg/mL solubility” value in data set [1] (at close to neutral pH) is reported as “difficult without using co-solvents”.

As to `CC(=O)O.CN1CCC(C(=O)c2cccc(NC(=O)c3c(F)cc(F)cc3F)n2)CC1` [Lasmiditan Acetate, 2,4,6-trifluoro-N-[6-(1-methylpiperidine-4-carbonyl)-2-pyridyl]benzamide acetate], the “solubility compared with lasmiditan hemisuccinate salt” value in data set [1] is “significantly higher solubility”. In addition, the solubility in data set [1] (10 mmol acetate buffer, pH 3.69, aqueous buffer, thermodynamic from solid, Acetate buffer, pH (before) 3.69, free base eq., all added solute went into solution, read-out: Solubility (Free Base eq. mg/mL)) is above 441 mg/mL; in data set [1] (10 mmol acetate buffer, pH 4.05, aqueous buffer, thermodynamic from solid, Acetate buffer, pH (before) 4.05, free base eq., all added solute went into solution, read-out: Solubility (Free Base eq. mg/mL)), above 430 mg/mL; in data set [1] (10 mmol acetate buffer, pH 4.4, aqueous buffer, thermodynamic from solid, Acetate buffer, pH (before) 4.4, free base eq., all added solute went into solution, read-out: Solubility (Free Base eq. mg/mL)), above 412 mg/mL; in data set [1] (10 mmol acetate buffer, pH 5.09, aqueous buffer, thermodynamic from solid, Acetate buffer, pH (before) 5.09, free base eq., all added solute went into solution, read-out: Solubility (Free Base eq. mg/mL)) it was above 430 mg/mL; in data set [1] (10 mmol acetate buffer, pH 5.71, aqueous buffer, thermodynamic from solid, Acetate buffer, pH (before) 5.71, free base eq., all added solute went into solution, read-out: Solubility (Free Base eq. mg/mL)), above 486 mg/mL; in data set [1] (10 mmol buffer (acetate, citrate or phosphate), pH 6.8, thermodynamic from solid, at close to neutral pH, without adjusting the pH, read-out: solubility), above 50 mg/mL. The solubility was above 300 mg/mL in data set [1] (10 mmol citrate buffer, pH 2.5, aqueous buffer, thermodynamic from solid, Citrate buffer, pH (before) 2.5, free base eq., all added solute went into solution, read-out: Solubility (Free Base eq. mg/mL)); above 300 mg/mL in data set [1] (10 mmol citrate buffer, pH 3.84, aqueous buffer, thermodynamic from solid, Citrate buffer, pH (before) 3.84, free base eq., all added solute went into solution, read-out: Solubility (Free Base eq. mg/mL)); above 300 mg/mL in data set [1] (10 mmol citrate buffer, pH 4.99, aqueous buffer, thermodynamic from solid, Citrate buffer, pH (before) 4.99, free base eq., all added solute went into solution, read-out: Solubility (Free Base eq. mg/mL)); above 300 mg/mL in data set [1] (10 mmol citrate buffer, pH 5.96, aqueous buffer, thermodynamic from solid, Citrate buffer, pH (before) 5.96, free base eq., all added solute went into solution, read-out: Solubility (Free Base eq. mg/mL)); above 300 mg/mL in data set [1] (10 mmol phosphate buffer, pH 8.24, aqueous buffer, thermodynamic from solid, Phosphate buffer, pH (before) 8.24, free base eq., all added solute went into solution, read-out: Solubility (Free Base eq. mg/mL)). In addition, the “pH (after)” value in data set [1] (Acetate buffer, pH (before) 3.69) came out at 6.25; in data set [1] (Acetate buffer, pH (before) 4.05), 6.41; in data set [1] (Acetate buffer, pH (before) 4.4) it was 6.31; in data set [1] (Acetate buffer, pH (before) 5.09), 6.50; in data set [1] (Acetate buffer, pH (before) 5.71), 6.56; in data set [1] (Citrate buffer, pH (before) 2.5), 5.60. For the same compound, the “pH (after)” value in data set [1] (Citrate buffer, pH (before) 3.84) worked out at 5.72; in data set [1] (Citrate buffer, pH (before) 4.99), 6.23; in data set [1] (Citrate buffer, pH (before) 5.96), 6.24; in data set [1] (Phosphate buffer, pH (before) 8.24), 6.42. Further, the stability of solution entry in data set [2] is listed as “at least 2 months”. In data set [3], the pH on dissolution result is “approximately 6.8”. Moreover, the tonicity of solution entry in data set [3] is listed as “isotonic”.

In the case of `CN1CCC(C(=O)c2cccc(N)n2)CC1` [(6-amino-2-pyridyl)-(1-methyl-4-piperidyl)methanone dihydrate dihydrochloride], the “form and chemical stability” value in data set [4] is “generally stable”.
